The numbers were not newly measured in patent US20050158403A1, “Preparation of chinese herbal composite recipe used in horticulture” (priority 2004, published 2005), which cites them from elsewhere.

The subject of data set [1] is E. Coli. The following applies: 1% matrine; in vitro.
Data set [2] concerns Staphylococcus aureaus. The following applies: 1% matrine; in vitro.
Data set [3] relates to Shigella. The following applies: 1% matrine; in vitro.
The subject of data set [4] is Proteus. As to conditions: 1% matrine; in vitro.
Data set [5] concerns B-streptococcus. As to conditions: 1% matrine; in vitro.
The test system of data set [6] is Ascarid.
In data set [7] the test system is bacteria.

As to `O=C1CCC[C@@H]2[C@H]3CCCN4CCC[C@@H](CN12)[C@@H]34` [matrine], the bacteria inhibition effects entry in data set [1], in data set [2], in data set [3], in data set [4] and in data set [5] was “bacteria inhibition effects” in each case.

As for `CC[C@@H]1[C@H]2CCCCN3[C@H]2[C@H](C[C@H]3[C@@H]2C[C@H](C)C(=O)O2)[C@@H]2[C@H]1OC(=O)[C@H]2C` [tuberostemonine], in data set [6], the “effect on Ascarid” value is recorded as “tuberostemonine can paralyze”.

Consider discorea saponin, for which, in data set [7], the effect to bacteria entry was “but no effect to bacteria”.
